Test results: US20210115000A1, “NILE RED DERIVATIVES FOR IMPROVED RATIOMETRIC IMAGING FOR NERVE SPECIFIC CONTRAST” (Oregon Health & Sciences University, priority 2018, published 2021)

How the values were obtained:
[1] = Spectroscopic analysis: absorbance, emission and quantum yield of Nile Red derivatives; assay type: physicochemical; conditions: in DMSO
Description: Tandem liquid chromatography mass spectroscopy (LCMS) analysis (Agilent 1260 LC system with a 6224 time of flight (TOF) MS, Agilent, Santa Clara, Calif.) was performed using a 2.7 micron C18 column (4.6×50 mm, Agilent). High performance liquid chromatography (HPLC) purification (Agilent 1260 system with a preparative pump) was performed using a 5 micron C18 column (21.2×150 mm, Agilent). For both HPLC and LCMS, the mobile phase consisted of HPLC grade acetonitrile and water, treated with 0.1% formic acid. Spectroscopic analysis was performed on a Spectramax M5 spectrometer (Molecular Devices, Sunnyvale, Calif.) using a quartz cuvette with a 1 cm pathlength. Quantum yield was calculated according to equation (1).
Where Ø is the quantum yield, F is the integrated fluorescence intensity, f is the absorbance at the excitation wavelength and n is the refractive index of the solvent. S refers to the quantum yield standard (Rhodamine B)^25 and X refers to the unknown sample.

[2] = tested on: U2OS human osteosarcoma cell line; experiment: Nile Red derivative cell staining and imaging, fixed and live cells; assay type: cell-based; conditions: U2OS live, 1 μM, 5 min, imaged in staining solution
Description: The U2OS human osteosarcoma cell line was cultured in Dulbecco's Modified Eagle Medium (DMEM, Thermo Fisher Scientific, Waltham, Mass.) with 10% fetal bovine serum (FBS, VWR, Radnor, Pa.) and 1% Penicillin/Steptomycin 100× (Thermo Fisher Scientific) at 37° C. in 5% CO2. For live cell imaging studies, Fluorobrite DMEM media (Thermo Fisher Scientific) was used in place of DMEM. For imaging studies, cells were grown in 96-well glass bottom plates (Cellvis, Mountain View, Calif.) for 48 hours, with a final confluence of <80%. Nile Red and its derivatives were prepared at 1-10 mM stock concentration in DMSO and diluted into media or buffer for cell staining and imaging studies.
Cell staining studies were completed on fixed and live U2OS cells using Nile Red and each synthesized Nile Red derivative described as follows. For fixed cell staining, cells were washed once with 1× phosphate buffered saline (PBS), then fixed with 4% paraformaldehyde (PFA) for 20 minutes at room temperature. The PFA was removed and each well was washed three times for 5 mins per wash (3×5 mins) with 1×PBS. The Nile Red fluorophores were diluted into 1×PBS to a final concentration of 1 μM, incubated for 5 minutes with the cells, and images were collected without washing. Live cell staining was completed using two methods. First, cells were washed once with Fluorobrite DMEM. The Nile Red fluorophore solution was prepared in Fluorobrite DMEM by diluting to a final concentration of 1 μM for staining, where cells were stained for 5 minutes. The fluorophore containing media was removed and the cells were fixed for 20 minutes using 4% PFA. Cells were then washed 3×5 mins with Fluorobrite DMEM prior to imaging. Second, cells were washed with Fluorobrite DMEM without FBS once for 5 minutes. Nile Red fluorophore solutions were prepared in Fluorobrite without FBS at 1 μM final concentration for cell staining. The cells were stained with the prepared solution for 5 minutes and imaged in the staining solution. All images were collected at their ideal exposure times to permit visualization of stained intracellular structures.
All ex vivo and cellular fluorescence and white light images were collected using a Zeiss AxioObserver inverted fluorescence microscope (Carl Zeiss, Oberkochen, Germany). All cell images were collected at 40× magnification and all tissue section images were collected at 10× magnification. Fluorescence excitation was completed using a Photofluor II broad band light source (89 North, Burlington, Vt.) filtered with a 545±12.5 nm bandpass excitation filter. Fluorescence images were collected using a 605±35 nm bandpass emission filter and a AxioCam 506 monochromo camera (Zeiss). All Filters were Purchased from Chroma Technologies (Bellows Falls, Vt.).

[3] = tested on: CD-1 mouse sciatic nerve and surrounding muscle and adipose tissues; experiment: Ex vivo tissue section staining, imaging and fluorescence quantification; conditions: 100 μM, 40 min, sections with nerve, muscle, adipose
Description: Cryosections of CD-1 mouse sciatic nerve and surrounding muscle and adipose tissues from unrelated experiments were cut from optimal cutting temperature (OCT, Fisher Scientific, Hampton, N.H.) embedded frozen tissues. Cryosectioned tissues were captured on superfrost plus slides (Fisher Scientific) at 10 μm thickness. The tissue sections were washed with 1×PBS for 2 minutes to remove OCT, and then fixed with 2% PFA for 15 mins. The tissue sections were then washed with 0.1% Tween 20 in 1×PBS (3×5 mins), followed by incubation with 100 μM of Nile Red and each Nile Red derivative formulated using 10% DMSO, 5% Kolliphore (Sigma Aldrich, St. Louis, Mo.), 63.75% FBS, and 21.25% 1× PBS as previously described.^26 Tissue sections were incubated with the formulated fluorophores for 40 minutes at room temperature, followed by washing with blank formulation not containing fluorophore (2×5 mins). Each tissue section was then washed with 1×PBS (2×5 mins), fixed for 15 minutes using 2% PFA, followed by a final wash with 1×PBS for 5 mins before mounting in glycerol (Fisher Scientific). Images were collected at an exposure time of 650 ms for all Nile Red and Nile Red derivative stained sections. Four tissue sections were stained for Nile Red and each Nile Red derivative, facilitating adipose to muscle and adipose to nerve contrast ratio quantification where tissue intensities were quantified using region of interest analysis with custom written MatLab code (The MathWorks, Natick, Mass.). For each tissue type, a representative area was selected, where a threshold based mask was set to determine tissue from background. The mean tissue intensity was calculated in adipose, nerve and muscle tissues as the intensity per second and used to calculate the adipose to nerve and adipose to muscle contrast ratios. All ex vivo and cellular fluorescence and white light images were collected using a Zeiss AxioObserver inverted fluorescence microscope (Carl Zeiss, Oberkochen, Germany). All cell images were collected at 40× magnification and all tissue section images were collected at 10× magnification. Fluorescence excitation was completed using a Photofluor II broad band light source (89 North, Burlington, Vt.) filtered with a 545±12.5 nm bandpass excitation filter. Fluorescence images were collected using a 605±35 nm bandpass emission filter and a AxioCam 506 monochromo camera (Zeiss). All Filters were Purchased from Chroma Technologies (Bellows Falls, Vt.).

[4] = tested on: sciatic nerve or brachial plexus nerve sites (adipose, nerve, muscle tissue); experiment: In vivo imaging following direct/topical administration on rodent nerve sites; set-up: species or system male CD-1 mice; conditions: immediately following direct administration
Text: In vivo images were acquired using a previously published, custom-built small animal fluorescence imaging system, described briefly here.^27 Fluorescent images were obtained using a Qimaging EXi Blue monochrome camera (Surrey, British Columbia, CA) with a removable Bayer mask for collection of co-registered color and fluorescence images. A Photofluor II broad band light source (89 North) was expanded onto the surgical field through a liquid light guide and used unfiltered for white light illumination. Nile Red and NR5 were excitated using a 545 t 12.5 nm bandpass filter, while fluorescence emission images were collected with a 605±35 nm bandpass filter. Oxazine 4 (Exciton, West Chester, Ohio) was used for nerve and adipose co-staining and ratiometic imaging studies. Oxazine 4 was excited using a 620±30 nm bandpass filter, while fluorescence emission images were collected through a 700±37.5 nm bandpass filter. Approval for the use of animals in the study was obtained from the Institutional Animal Care and Use Committee (IACUC) at Oregon Health and Science University (OHSU). In vivo staining studies were carried out on male CD-1 mice using an optimized direct/topical administration protocol.^2 Staining was performed concurrently on no more than two nerve sites (sciatic nerve or brachial plexus) per mouse. Nile Red and all Nile Red derivatives were formulated in a previously published co-solvent formulation (10% DMSO, 5% Kolliphor, 63.75% serum and 21.25% PBS^14) at a final concentration of 100 μM. Each formulated fluorophore was incubated for 5 minutes on the nerve site (n=4 nerve sites/fluorophore), followed by 9 short flushes with PBS. The nerve site was then incubated with blank co-solvent not containing fluorophore for 5 minutes, followed again by 9 short flushes with PBS.

In the case of `CCN(CC)c1ccc2nc3c4cc(-c5ccc(C#N)cc5)ccc4c(=O)cc-3oc2c1` [NR12, 4-(9-(diethylamino)-5-oxo-5H-benzo[a]phenoxazin-2-yl)benzonitrile], the “Max Abs” value [1] was 560 nm, the “Max Em” value [1] was 635 nm and the “Stokes Shift” value [1] was 75 nm. The “structures observed in live cells without washing” value [2] was “Prominent lipid droplet like structures”, the “tissue staining specificity on mouse tissue sections” value [3] was “adipose specificity” and the “adipose to muscle ratio” value [4] was “lower than Nile Red, adipose to muscle contrast was similar”. The “adipose to nerve ratio” value [4] was “increased contrast over control autofluorescence with similar adipose to nerve contrast”.
